# Results reported in patent US11905244B2, “Chemical modulators of store-operated calcium channels and their therapeutic applications” (The Texas A&M University System, priority 2017, dated 2024).
# “Also recorded” adds a separate entry of the source. Where two headings read alike, the source gives them in different places.
# Key:
# [1] = test system: azoxymethane (AOM)-induced mouse colon cancer model; experiment: Azoxymethane (AOM)-induced mouse colon cancer model; type: in vivo; conditions: treated for 8 weeks
# Method: To induce colon cancer in situ, mice (four month old) were randomly divided into three groups: (1) AOM control group; (2) Compound 53 group, (3) CsA group, and injected with AOM subcutaneously (10 mg/kg body weight) once a week for 4 weeks. Then, Compound 53 and CsA group were treated with Compound 53 and CsA respectively for 8 weeks, and the control group was treated with 0.9% NaCl solution. Then, mice were killed and the colon was isolated. The number of the tumors formed was analyzed.
# [2] = test system: MDA-MB-231 breast cancer cells; experiment: Migration assay (wound healing assay); type: cell-based; conditions: MDA-MB-231, wound healing assay
# Method: The effect of compounds on inhibiting migration was evaluated using wound healing assay. Briefly, cells were seeded in a six well-plate, and a wound was generated by scratching the cell monolayer with a 200 μL pipette tip. Then, cells were continued to be cultured in the presence or absence of compounds, and the photographic recording was performed at 0 h, 24 h, and 48 h respectively. The number of the migrated cells was calculated with ImageJ software.
# [3] = test system: cytokine IL-2 expression in primary T cells; experiment: Effect of compounds on cytokine expression in primary T cells (flow cytometry); type: cell-based; conditions: Mus musculus, T-cell
# Method: The lymph nodes and a spleen from mouse were collected, and then the immune cells were induced to differentiate towards Th1 cells in presence of α-CD3, α-CD28, IL-12, and IL-2. After obtaining Th1 cells, the cells were amplified and then the cells were treated with drugs. The expression level of the cytokine was analyzed using flow cytometry.
# [4] = test system: MDA-MB-231 breast cancer cells; experiment: Invasion assay; type: cell-based
# [5] = test system: IL-2 and IFNγ expression in Jurkat cell; experiment: Cytokine expression in Jurkat cells; type: cell-based
# CRAC channel = CRAC channel (Homo sapiens (Human), UniProt Q96D31); experiment: GFP-NFAT translocation-based high-content screening (TG-stimulated HeLa cells stably expressing GFP-NFAT); type: cell-based; conditions: for Inhibitory activity on CRAC channel in primary screening (NFAT nucleus-to-cytosol ratio): 200 μM compound
# Excerpt: It is known that thapsigargin (TG) can induce the CRAC channel to open resulting in the calcium influx. The elevation of calcium in cytoplasm can activate the Ca^2+-calcineurin-NFAT pathway followed by NFAT translocation from the cytoplasm to the nucleus to regulate gene transcription. Therefore, the inventors built a GFP-NFAT translocation-based high-content screening method to evaluate the activity of compounds on CRAC channel. Briefly, a HeLa cell line stably expressing GFP-NFAT was established and used, and the images after chemical stimulation in the presence of TG were acquired using an IN Cell Analyzer 6000 confocal laser imaging system, and then the GFP fluorescent intensity ratio between cytoplasm and nucleus was analyzed to reflect the inhibitory activity of compound on CRAC channel.
# Briefly, GFP-NFAT stable cells were cultured in Dulbecco's modified eagle's medium (DMEM) supplemented with 10% FBS in 5% carbon dioxide at 37° C. When it reached 90% confluency, a cell suspension with a concentration of […] was prepared, and an amount of 2000 cells per well (25 μL/well) was seeded in 384 well plate, putting it at the room temperature for 1 h to make sure the cells distribute evenly, then the cells were incubated overnight. First, primary screening of the selected compounds was conducted. A series of compound solutions with a concentration of 200 μM in MEDM medium were prepared in a 96 well plate and then added to a 384 well plate using a Beckman Coulter automatic drug adding system, in 4 duplicates, and incubated for 30 min at 37° C. SKF was selected as the positive control. Then, 1 μM TG and 1 mM Ca^2+ were added to 384-well plate using Beckman Coulter automatic drug adding system and incubated for 20 min. Subsequently, 384 well plate was gently washed with PBS twice, and the cells were fixed with 4% PFA (25 μl per well) for 10˜15 mins at room temperature, then washed with PBS gently, added 0.5% Triton X-100 (25 μL per well), and incubated for 5 mins aFt room temperature, stained with DAPI (1 μg/mL) for 5˜10 mins at room temperature, washed with PBS and added 30 μL PBS per well to image on confocal laser imaging system (objective lens: 10×, FITC and UV). Using Pipeline Plot software (NAFT translocation protocol), the intensity of green fluorescence was analyzed in nucleus and cytosol, calculate the ratio of nucleus:cytosol, normalize TG stimulate NFAT translocation as 1 and no TG adding as 0. Finally, the data was analyzed using GraphPad Prism 5 software.
# [6] = Table 2, unit inferred, read-out: IC50 of the compounds (inhibitory activity on CRAC channel)
# Chain of CRAC channel (Q96D31 whole entry): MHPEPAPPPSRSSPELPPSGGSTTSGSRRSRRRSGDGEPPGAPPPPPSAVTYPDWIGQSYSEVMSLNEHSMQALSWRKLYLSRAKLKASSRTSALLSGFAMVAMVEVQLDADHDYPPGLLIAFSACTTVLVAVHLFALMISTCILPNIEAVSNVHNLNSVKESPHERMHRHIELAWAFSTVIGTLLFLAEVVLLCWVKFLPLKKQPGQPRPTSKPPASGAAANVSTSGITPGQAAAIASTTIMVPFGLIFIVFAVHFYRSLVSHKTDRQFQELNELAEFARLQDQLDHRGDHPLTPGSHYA
Compound,IC50 (CRAC channel; [6]),also measured
COC(=O)c1ccc(N2C(=O)CC(S/C(=N\c3ccccc3)NCCc3ccc(S(N)(=O)=O)cc3)C2=O)cc1 (centres unmarked) [Compound 53],13 µM,"Antitumor activity compared with positive control drug CsA [1]: better than the positive control drug CsA; Number of the formed tumors in the colon [1]: greatly decrease the number of the formed tumors; also recorded: reducing the number of tumors formed compared to the control group; Cell migration [2]: greatly inhibit; IC50 [3]: 15.6 ± 1.17 µM; Cell invasion [4]: greatly inhibit; IL-2 and IFNγ (cytokine) expression [5]: inhibit IL-2 and IFNγ expression; also recorded: inhibits cytokine expression; Inhibitory activity on CRAC channel in primary screening (NFAT nucleus-to-cytosol ratio) (CRAC channel): good inhibition; IC50 (CRAC channel; GFP-NFAT translocation assay, read-out: IC50 on CRAC channel): 8.14 µM"
CN/C(=N/c1cc(Cl)ccc1Cl)SC1CC(=O)N(c2ccc(C(=O)OC)cc2)C1=O (centres unmarked) [Compound 65],30.6 µM,Cell migration [2]: greatly inhibit; Inhibitory activity on CRAC channel in primary screening (NFAT nucleus-to-cytosol ratio) (CRAC channel): good inhibition
CCN/C(=N/c1ccc2c(c1)OCO2)SC1CC(=O)N(c2ccc(C(=O)OC)cc2)C1=O (centres unmarked) [Compound 66],10.5 µM,Cell migration [2]: greatly inhibit; Inhibitory activity on CRAC channel in primary screening (NFAT nucleus-to-cytosol ratio) (CRAC channel): good inhibition
COC(=O)c1ccc(N2C(=O)CC(S/C(=N/c3ccccc3)NC(C)C)C2=O)cc1 (centres unmarked) [Compound 79],11.7 µM,–
COC(=O)c1ccc(N2C(=O)CC(S/C(=N/c3ccccc3)NC3CC3)C2=O)cc1 (centres unmarked) [Compound 80],> 200 µM,–
COC(=O)c1ccc(N2C(=O)CC(S/C(=N/c3ccccc3)NC(C)(C)C)C2=O)cc1 (centres unmarked) [Compound 81],> 200 µM,–
CCOC(=O)c1ccc(N2C(=O)CC(S/C(=N/c3ccccc3)NC)C2=O)cc1 (centres unmarked) [Compound 82],22.4 µM,–
CCN/C(=N\c1ccccc1)SC1CC(=O)N(c2ccc(C(=O)OCC)cc2)C1=O (centres unmarked) [Compound 83],> 200 µM,–
CCCN/C(=N\c1ccccc1)SC1CC(=O)N(c2ccc(C(=O)OCC)cc2)C1=O (centres unmarked) [Compound 84],> 200 µM,–
CCCCN/C(=N\c1ccccc1)SC1CC(=O)N(c2ccc(C(=O)OCC)cc2)C1=O (centres unmarked) [Compound 85],> 200 µM,–
CCOC(=O)c1ccc(N2C(=O)CC(S/C(=N/c3ccccc3)NC(C)C)C2=O)cc1 (centres unmarked) [Compound 86],6.34 µM,–
CCOC(=O)c1ccc(N2C(=O)CC(S/C(=N/c3ccccc3)NC(C)(C)C)C2=O)cc1 (centres unmarked) [Compound 88],> 200 µM,–
CNC(=O)c1ccc(N2C(=O)CC(S/C(=N/c3ccccc3)NC)C2=O)cc1 (centres unmarked) [Compound 89],> 200 µM,–
CCN/C(=N\c1ccccc1)SC1CC(=O)N(c2ccc(C(=O)NC)cc2)C1=O (centres unmarked) [Compound 90],> 200 µM,–
CCCN/C(=N\c1ccccc1)SC1CC(=O)N(c2ccc(C(=O)NC)cc2)C1=O (centres unmarked) [Compound 91],> 200 µM,–
CCCCN/C(=N\c1ccccc1)SC1CC(=O)N(c2ccc(C(=O)NC)cc2)C1=O (centres unmarked) [Compound 92],> 200 µM,–
CNC(=O)c1ccc(N2C(=O)CC(S/C(=N/c3ccccc3)NC(C)C)C2=O)cc1 (centres unmarked) [Compound 93],> 200 µM,–
CNC(=O)c1ccc(N2C(=O)CC(S/C(=N/c3ccccc3)NC3CC3)C2=O)cc1 (centres unmarked) [Compound 94],> 200 µM,–
CNC(=O)c1ccc(N2C(=O)CC(S/C(=N/c3ccccc3)NC(C)(C)C)C2=O)cc1 (centres unmarked) [Compound 95],> 200 µM,–
NS(=O)(=O)c1ccc(CCN/C(=N\c2ccccc2)SC2CC(=O)N(c3ccccc3)C2=O)cc1 (centres unmarked) [Compound 96],10.9 µM,–
NS(=O)(=O)c1ccc(CCNC(=S)Nc2cccnc2)cc1 [Compound 97],> 200 µM,–
COC(=O)c1ccc(N2C(=O)CC(S/C(=N/c3cc(OC)ccc3OC)NCCc3ccc(S(N)(=O)=O)cc3)C2=O)cc1 (centres unmarked) [Compound 98],21.2 µM,–

Compound,IC50 (CRAC channel; [6]),also measured
CNC(=O)c1ccc(N2C(=O)CC(S/C(=N/c3ccccc3)NCCc3ccc(S(N)(=O)=O)cc3)C2=O)cc1 (centres unmarked) [Compound 99],18.2 µM,–
COC(=O)c1ccc(N2C(=O)CC(S/C(=N/c3ccc(OC)cc3)NCCc3ccc(S(N)(=O)=O)cc3)C2=O)cc1 (centres unmarked) [Compound 100],14.8 µM,–
COC(=O)c1ccc(N2C(=O)CC(S/C(=N/c3cccc(OC)c3)NCCc3ccc(S(N)(=O)=O)cc3)C2=O)cc1 (centres unmarked) [Compound 101],11.2 µM,–
COC(=O)c1ccc(N2C(=O)CC(S/C(=N/c3ccc(C)cc3)NCCc3ccc(S(N)(=O)=O)cc3)C2=O)cc1 (centres unmarked) [Compound 102],9.2 µM,–
CCOC(=O)c1ccc(N2C(=O)CC(S/C(=N/c3ccccc3)NCCc3ccc(S(N)(=O)=O)cc3)C2=O)cc1 (centres unmarked) [Compound 103],15.8 µM,–
NS(=O)(=O)c1ccc(CCNC(=S)Nc2cccc3ccccc23)cc1 [Compound 104],> 200 µM,–
COc1ccc(N2C(=O)CC(S/C(=N/c3ccc(C)cc3)NCCc3ccc(S(N)(=O)=O)cc3)C2=O)cc1 (centres unmarked) [Compound 105],> 200 µM,–
COc1ccc(N2C(=O)CC(S/C(=N/c3ccccc3)NCCc3ccc(S(N)(=O)=O)cc3)C2=O)cc1 (centres unmarked) [Compound 106],5.01 µM,–
CCOC(=O)c1ccc(N2C(=O)CC(S/C(=N/c3ccc(OC)cc3)NCCc3ccc(S(N)(=O)=O)cc3)C2=O)cc1 (centres unmarked) [Compound 107],> 200 µM,–
COc1ccc(/N=C(\NCCc2ccc(S(N)(=O)=O)cc2)SC2CC(=O)N(c3ccc(OC)cc3)C2=O)cc1 (centres unmarked) [Compound 108],> 200 µM,–
COc1ccc(N2C(=O)CC(S/C(=N/c3cc(OC)ccc3OC)NCCc3ccc(S(N)(=O)=O)cc3)C2=O)cc1 (centres unmarked) [Compound 109],> 200 µM,–
CCOC(=O)c1ccc(N2C(=O)CC(S/C(=N/c3cc(OC)ccc3OC)NCCc3ccc(S(N)(=O)=O)cc3)C2=O)cc1 (centres unmarked) [Compound 110],> 200 µM,–
COc1ccc(/N=C(\NCCc2ccc(S(N)(=O)=O)cc2)SC2CC(=O)N(c3ccccc3)C2=O)cc1 (centres unmarked) [Compound 111],1.6 µM,–
COc1ccc(OC)c(/N=C(\NCCc2ccc(S(N)(=O)=O)cc2)SC2CC(=O)N(c3ccccc3)C2=O)c1 (centres unmarked) [Compound 112],0.2 µM,–
Cc1ccc(/N=C(\NCCc2ccc(S(N)(=O)=O)cc2)SC2CC(=O)N(c3ccccc3)C2=O)cc1 (centres unmarked) [Compound 113],5.83 µM,–
COc1ccc(/N=C(\NCCc2ccc(S(N)(=O)=O)cc2)SC2CC(=O)N(c3ccc(C)cc3)C2=O)cc1 (centres unmarked) [Compound 114],> 200 µM,–
Cc1ccc(/N=C(\NCCc2ccc(S(N)(=O)=O)cc2)SC2CC(=O)N(c3ccc(C)cc3)C2=O)cc1 (centres unmarked) [Compound 115],5.84 µM,–
CCOC(=O)c1ccc(N2C(=O)CC(S/C(=N/c3ccc(C)cc3)NCCc3ccc(S(N)(=O)=O)cc3)C2=O)cc1 (centres unmarked) [Compound 116],> 200 µM,–
CCOC(=O)c1ccc(N2C(=O)CC(Sc3nc4ccccc4n3CCc3ccc(S(N)(=O)=O)cc3)C2=O)cc1 (centres unmarked) [Compound 117],> 200 µM,–
COc1ccc(N2C(=O)CC(Sc3nc4ccccc4n3CCc3ccc(S(N)(=O)=O)cc3)C2=O)cc1 (centres unmarked) [Compound 118],> 200 µM,–
Cc1ccc(N2C(=O)CC(Sc3nc4ccccc4n3CCc3ccc(S(N)(=O)=O)cc3)C2=O)cc1 (centres unmarked) [Compound 119],> 200 µM,–
COc1ccc(N2C(=O)CC(Br)C2=O)cc1 (centres unmarked) [Compound 120],> 200 µM,–
